Values quoted from earlier work, collected in patent US11103587B2, “Multiple oligonucleotide moieties on peptide carrier” (Genzyme Corporation, priority 2014, dated 2021).

Columns and labels:
[1] = test system: exon 23 of the mRNA encoding for dystrophin; conditions: mdx mouse, cited from earlier work
[2] = mice; cited from earlier work

For “GGCCAAACCTCGGCTTACCTGAAAT (PMO backbone, chemistry not fully specified) [PMO23, PMO designed to skip exon 23 of the mRNA encoding for dystrophin]”, the “skipping of exon 23 in cardiac muscle” value ([1]; cardiac muscle) is listed as “does not effect exon 23 skipping in cardiac muscle”, the “skipping of exon 23 in skeletal muscle” value ([1]; skeletal muscle) is listed as less than 15% and the “amount administered without any noticeable toxic effects” value [2] is listed as no more than 250 mg/kg.
